We go through eight molecules from paper PMC7925390 (Frontiers in Microbiology, 2021).

Read-outs that look alike come from different tables or passages of the source.

The target in data set [1] is T1, TsPYK (Thermoanaerobacterium saccharolyticum, UniProt I3VV25).
T1 construct: gene Tsac_1363; full length with extra-C domain; N-terminal 6XHis tag kept (6XHis-MBP-SUMO tag in later expression); expressed in E. coli FF50 / QTF60 (pykA pykF deleted); homotetramer
T1 sequence (I3VV25 1-583): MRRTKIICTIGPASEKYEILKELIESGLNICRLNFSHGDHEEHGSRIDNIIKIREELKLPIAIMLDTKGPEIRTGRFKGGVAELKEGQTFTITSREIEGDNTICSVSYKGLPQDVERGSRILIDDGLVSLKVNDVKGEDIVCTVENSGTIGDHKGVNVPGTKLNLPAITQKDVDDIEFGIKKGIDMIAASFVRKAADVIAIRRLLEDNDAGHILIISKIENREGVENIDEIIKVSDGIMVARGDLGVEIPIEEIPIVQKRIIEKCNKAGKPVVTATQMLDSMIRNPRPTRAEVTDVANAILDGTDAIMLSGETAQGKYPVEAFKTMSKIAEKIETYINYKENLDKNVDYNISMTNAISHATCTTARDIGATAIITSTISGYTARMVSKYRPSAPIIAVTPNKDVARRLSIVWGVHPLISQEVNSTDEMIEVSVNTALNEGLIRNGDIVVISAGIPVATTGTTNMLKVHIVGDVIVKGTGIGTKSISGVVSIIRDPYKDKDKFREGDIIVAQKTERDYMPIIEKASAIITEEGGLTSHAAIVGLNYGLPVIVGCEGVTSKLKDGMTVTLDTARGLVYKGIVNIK
Description: Kapp–PEP versus effector concentration, lactate dehydrogenase coupled assay. In kind it is biochemical. The note with it: 10 mM ADP, 15 mM MgCl2, 30 °C.

Data set [2] concerns the target T1, TsPYK. Description: Kapp–PEP versus effector concentration, lactate dehydrogenase coupled assay, linkage fit. Type of data set: biochemical. The note with it: Kix in absence of PEP, 10 mM ADP, 15 mM MgCl2, 30 °C. An excerpt:
Kapp–PEP versus effector concentration, lactate dehydrogenase coupled assay, linkage fit on TsPYK

The target in data set [3] is T2, E. coli Type A (Escherichia coli, UniProt P21599).
T2 construct: gene pykA; full length; no extra-C domain; N-terminal 6XHis-MBP-SUMO tag kept; expressed in E. coli QTF60
T2 sequence (P21599 whole entry): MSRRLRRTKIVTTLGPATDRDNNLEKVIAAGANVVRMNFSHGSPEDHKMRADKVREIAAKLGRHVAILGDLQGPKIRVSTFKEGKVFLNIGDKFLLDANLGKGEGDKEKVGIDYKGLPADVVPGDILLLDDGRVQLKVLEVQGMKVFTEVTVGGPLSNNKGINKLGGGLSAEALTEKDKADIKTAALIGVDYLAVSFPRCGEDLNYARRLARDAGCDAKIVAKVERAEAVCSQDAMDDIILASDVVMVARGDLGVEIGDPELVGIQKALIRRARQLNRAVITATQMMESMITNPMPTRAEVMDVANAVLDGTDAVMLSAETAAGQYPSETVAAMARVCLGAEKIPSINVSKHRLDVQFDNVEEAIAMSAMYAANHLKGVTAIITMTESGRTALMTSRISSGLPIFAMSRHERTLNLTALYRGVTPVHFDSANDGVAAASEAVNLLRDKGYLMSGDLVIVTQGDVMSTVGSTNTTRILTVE
Description: Kapp–PEP versus effector concentration, lactate dehydrogenase coupled assay. Type of data set: biochemical. The settings on record: allosteric activator; 10 mM ADP, 15 mM MgCl2, 30 °C.

The target of data set [4] is T3, C. bescii PYK (Caldicellulosiruptor bescii, UniProt A0ABY1S964).
T3 construct: gene SAMN05216240_1829; full length with extra-C domain; N-terminal 6XHis-MBP-SUMO tag kept; expressed in E. coli QTF60
T3 sequence (A0ABY1S964 entry or part of it): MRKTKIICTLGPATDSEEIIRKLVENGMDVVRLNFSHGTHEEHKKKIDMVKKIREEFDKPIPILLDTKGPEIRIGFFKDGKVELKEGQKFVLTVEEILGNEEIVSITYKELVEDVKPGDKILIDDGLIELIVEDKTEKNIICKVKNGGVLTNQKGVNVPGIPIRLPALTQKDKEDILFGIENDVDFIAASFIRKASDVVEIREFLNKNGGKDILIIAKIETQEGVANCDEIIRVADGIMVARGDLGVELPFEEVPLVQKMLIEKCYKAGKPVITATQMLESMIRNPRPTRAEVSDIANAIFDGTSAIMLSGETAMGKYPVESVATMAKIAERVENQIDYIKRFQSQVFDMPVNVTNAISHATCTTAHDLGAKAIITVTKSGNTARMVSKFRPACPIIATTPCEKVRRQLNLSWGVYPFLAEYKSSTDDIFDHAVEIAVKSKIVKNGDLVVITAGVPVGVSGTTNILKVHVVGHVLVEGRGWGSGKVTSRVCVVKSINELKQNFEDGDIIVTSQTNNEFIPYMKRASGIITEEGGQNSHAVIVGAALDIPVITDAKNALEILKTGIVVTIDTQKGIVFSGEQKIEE
The description is as above. In kind it is biochemical. The note with it: allosteric activator; 10 mM ADP, 15 mM MgCl2, 30 °C.

Data set [5] has as its target T4, TsPYK extra-C domain truncated (Thermoanaerobacterium saccharolyticum, UniProt I3VV25).
T4 construct: gene Tsac_1363; N-terminal 6XHis-MBP-SUMO tag kept; expressed in E. coli QTF60
Described as above. Type of data set: biochemical. The settings on record: allosteric activator; 10 mM ADP, 15 mM MgCl2, 30 °C.

Data set [6] deals with T2, E. coli Type A. Briefly: lactate dehydrogenase coupled NADH assay, A340, Hill fit. Type of data set: biochemical. The note with it: 10 mM ADP, 15 mM MgCl2, 30 °C; no effector.
The next data set deals with T5, E. coli Type F (Escherichia coli, UniProt P0AD61).
T5 construct: gene pykF; full length; no extra-C domain; N-terminal 6XHis-MBP-SUMO tag kept; expressed in E. coli QTF60
T5 sequence (P0AD61 whole entry): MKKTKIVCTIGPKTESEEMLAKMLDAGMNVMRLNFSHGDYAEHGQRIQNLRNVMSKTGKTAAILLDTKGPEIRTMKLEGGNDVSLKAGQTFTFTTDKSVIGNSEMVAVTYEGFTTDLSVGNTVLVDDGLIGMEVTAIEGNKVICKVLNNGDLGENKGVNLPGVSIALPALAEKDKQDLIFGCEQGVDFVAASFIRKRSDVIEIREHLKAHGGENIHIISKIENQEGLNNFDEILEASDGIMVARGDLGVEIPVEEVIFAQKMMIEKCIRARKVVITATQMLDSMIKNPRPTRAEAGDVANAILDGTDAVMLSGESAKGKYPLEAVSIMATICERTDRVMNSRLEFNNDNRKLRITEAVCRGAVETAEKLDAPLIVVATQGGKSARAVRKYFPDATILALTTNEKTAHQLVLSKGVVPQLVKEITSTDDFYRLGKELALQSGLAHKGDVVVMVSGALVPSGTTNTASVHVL
Described as above. In kind it is biochemical. The note with it: 10 mM ADP, 15 mM MgCl2, 30 °C; no effector.

For data set [7], the target named is T4, TsPYK extra-C domain truncated. The description is as above. Type of data set: biochemical. The settings on record: 10 mM ADP, 15 mM MgCl2, 30 °C; no effector.
Data set [8] has as its target T3, C. bescii PYK. The description is as above. Type of data set: biochemical. The note with it: 10 mM ADP, 15 mM MgCl2, 30 °C; no effector.
Substrate in data set [9]: C=C(OP(=O)(O)O)C(=O)O
Described as above. In kind it is biochemical, Thermoanaerobacterium saccharolyticum. The note with it: 10 mM ADP, 15 mM MgCl2, 195 mM K+, 80 mM Na+, 50 mM HEPES, 30 °C, no effector, ± sign lost in table text. An excerpt:
lactate dehydrogenase coupled NADH assay, A340, Hill fit on TsPYK

In the case of `O=C[C@H](O)COP(=O)(O)O` [glyceraldehyde 3-phosphate], the Kapp-PEP shift result at TsPYK [1] (allosteric inhibitor) was “glyceraldehyde 3-phosphate, fructose-6-phosphate, IMP or GMP all caused reduced affinity for PEP”.
Take `Nc1ncnc2c1ncn2[C@@H]1O[C@H](COP(=O)(O)O)[C@@H](O)[C@H]1O` [AMP]: the Kd at TsPYK [2] (allosteric activator, ± sign lost in table text, read-out: Kix-AMP) worked out at 90 ± 60 µM. Moreover, the Kapp-PEP shift result on E. coli Type A [3] was “the E. coli type A isozyme was activated by both AMP and IMP”; at C. bescii PYK [4], “the isozyme from C. bescii were inhibited by IMP and activated by AMP”; in [5], “Activation by AMP was not influenced by the removal of the extra-C domain”.
Regarding `Nc1ncnc2c1ncn2[C@H]1C[C@H](O)[C@@H](COP(=O)(O)O)O1` [2-deoxyadenonsine-5′MP], the Kapp-PEP shift result at TsPYK [1] (allosteric activator) is given as “generated a response very similar to AMP (slightly reduced binding)”.
With `O=P(O)(O)OC[C@H]1OC(O)[C@H](O)[C@@H]1O` (some centres unmarked) [R5P], at TsPYK [2] (allosteric activator, ± sign lost in table text (printed 1110), read-out: Kix-R5P), the Kd was found to be 11000 ± 10000 µM.
As for `O=P(O)(O)OC[C@H]1OC(O)(CO)[C@@H](O)[C@@H]1O` (some centres unmarked) [fructose-6-phosphate], the Kapp-PEP shift entry on TsPYK [1] (allosteric inhibitor) is “glyceraldehyde 3-phosphate, fructose-6-phosphate, IMP or GMP all caused reduced affinity for PEP”.
Regarding `C=C(OP(=O)(O)O)C(=O)O` [PEP], the Kapp-PEP result is “The response of three bacterial PYK isozymes to AMP and IMP” on E. coli Type A [6]; “The response of three bacterial PYK isozymes to AMP and IMP” at E. coli Type F; “A comparison of responses to IMP and AMP for the full length TsPYK” in data set [7]; “The response of three bacterial PYK isozymes to AMP and IMP” on C. bescii PYK [8].
Take `Nc1nc2c(ncn2[C@@H]2O[C@H](COP(=O)(O)O)[C@@H](O)[C@H]2O)c(=O)[nH]1` [GMP]: the Kd at TsPYK [2] (allosteric inhibitor, ± sign lost in table text (printed 11), read-out: Kix-GMP) amounted to 1000 ± 1000 µM.

B1: TsPYK (Thermoanaerobacterium saccharolyticum JW/SL-YS485) (protein)
chain: MRRTKIICTIGPASEKYEILKELIESGLNICRLNFSHGDHEEHGSRIDNIIKIREELKLPIAIMLDTKGPEIRTGRFKGGVAELKEGQTFTITSREIEGDNTICSVSYKGLPQDVERGSRILIDDGLVSLKVNDVKGEDIVCTVENSGTIGDHKGVNVPGTKLNLPAITQKDVDDIEFGIKKGIDMIAASFVRKAADVIAIRRLLEDNDAGHILIISKIENREGVENIDEIIKVSDGIMVARGDLGVEIPIEEIPIVQKRIIEKCNKAGKPVVTATQMLDSMIRNPRPTRAEVTDVANAILDGTDAIMLSGETAQGKYPVEAFKTMSKIAEKIETYINYKENLDKNVDYNISMTNAISHATCTTARDIGATAIITSTISGYTARMVSKYRPSAPIIAVTPNKDVARRLSIVWGVHPLISQEVNSTDEMIEVSVNTALNEGLIRNGDIVVISAGIPVATTGTTNMLKVHIVGDVIVKGTGIGTKSISGVVSIIRDPYKDKDKFREGDIIVAQKTERDYMPIIEKASAIITEEGGLTSHAAIVGLNYGLPVIVGCEGVTSKLKDGMTVTLDTARGLVYKGIVNIK
notes: full length with extra-C domain; N-terminal 6XHis tag kept (6XHis-MBP-SUMO tag in later expression); expressed in E. coli FF50 / QTF60 (pykA pykF deleted); homotetramer
For the molecule B1, the K0.5 in data set [9] worked out at 0.63 ± 0.03 mM.
